Patent US6723741B2, “Benzimidazoles and benzothiazoles and uses thereof” (Synaptic Pharmaceutical Corporation, priority 1996, dated 2004)

Tests used:
[1] = molecular target: T1, human α2A adrenergic receptor (Homo sapiens, UniProt P08913); experiment: Agonist activity: inhibition of forskolin-stimulated cAMP synthesis; settings: for I.A (Intrinsic Activity) Alpha-2 A: maximum activity relative to maximum activity induced by norepinephrine, human α2A
T1 sequence (P08913 1-465): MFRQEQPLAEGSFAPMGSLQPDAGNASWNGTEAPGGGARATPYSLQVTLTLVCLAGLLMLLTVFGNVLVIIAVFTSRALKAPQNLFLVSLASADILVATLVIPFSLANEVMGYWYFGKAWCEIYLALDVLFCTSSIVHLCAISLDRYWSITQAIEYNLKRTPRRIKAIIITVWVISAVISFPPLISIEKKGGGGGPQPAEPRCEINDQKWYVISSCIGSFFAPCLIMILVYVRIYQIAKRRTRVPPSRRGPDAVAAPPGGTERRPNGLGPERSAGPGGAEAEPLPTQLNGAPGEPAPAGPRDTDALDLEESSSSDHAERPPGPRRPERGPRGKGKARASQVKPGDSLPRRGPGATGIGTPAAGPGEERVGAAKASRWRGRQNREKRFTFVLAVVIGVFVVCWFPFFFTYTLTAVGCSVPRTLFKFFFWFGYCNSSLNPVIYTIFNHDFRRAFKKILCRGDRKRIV

[2] = molecular target: T2, human α2C adrenergic receptor (Homo sapiens, UniProt P18825); experiment: Radioligand binding assay, [3H]rauwolscine competition
T2 construct: The entire coding region of α2C (1383 bp), including 2 bp of 5′ UT and 400 bp of 3′ UT; expressed in transfected cells
T2 sequence (P18825 1-462): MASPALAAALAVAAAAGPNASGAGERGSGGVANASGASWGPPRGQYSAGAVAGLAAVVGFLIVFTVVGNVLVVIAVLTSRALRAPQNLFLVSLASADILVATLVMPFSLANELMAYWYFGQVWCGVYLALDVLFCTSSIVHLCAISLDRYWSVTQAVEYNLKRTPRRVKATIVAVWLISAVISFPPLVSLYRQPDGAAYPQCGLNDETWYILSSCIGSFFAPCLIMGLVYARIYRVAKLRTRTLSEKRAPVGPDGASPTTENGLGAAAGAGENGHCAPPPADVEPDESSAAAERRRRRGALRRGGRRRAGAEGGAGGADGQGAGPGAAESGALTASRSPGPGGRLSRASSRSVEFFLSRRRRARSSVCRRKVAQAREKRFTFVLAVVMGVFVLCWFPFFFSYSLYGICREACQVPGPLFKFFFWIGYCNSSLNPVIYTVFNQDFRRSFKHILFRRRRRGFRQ

| SMILES | EC50 [1] [nM] | I.A (Intrinsic Activity) Alpha-2 A [1] | Ki [2] [nM] |
| --- | --- | --- | --- |
| c1nc2ccc(NC3=NCCS3)cc2s1 [Example 15, 6-(2-Thiazolin-2-ylamino)benzothiazole] | 3090 | 0.58 |  |
| N#Cc1cc(NC2=NCCN2)cc2cc[nH]c12 [Example 5, 7-Cyano-5-(2-imidazolin-2-ylamino)indole] |  |  | 43.7 |
| c1nc2cc(NC3=NCCN3)ccc2s1 [Example 13, 5-(2-Imidazolin-2-ylamino)benzothiazole] | 12.3 | 0.98 | 20.4 |
| c1nc2ccc(NC3=NCCN3)cc2s1 [Example 14, 6-(2-Imidazolin-2-ylamino)benzothiazole] |  | 0.51 |  |
| Brc1cc(NC2=NCCN2)cc2cc[nH]c12 [Example 2, 7-Bromo-5-(2-imidazolin-2-ylamino)indole] | 0.437 | 0.46 | 12.9 |
| CC(=O)c1cc(NC2=NCCN2)cc2cc[nH]c12 [Example 6, 7-Acetyl-5-(2-imidazolin-2-ylamino)indole] |  |  | 117 |
